Reference: BigSolDB 2.1

O=c1cc(-c2ccccc2)oc2c1ccc1ccccc12
Settings	solubility (mole fraction)
in 1,4-dioxane, 288.15 K	0.0128
in 1,4-dioxane, 293.15 K	0.0158
in 1,4-dioxane, 298.15 K	0.019
in 1,4-dioxane, 303.15 K	0.0223
in 1,4-dioxane, 308.15 K	0.0259
in 1,4-dioxane, 313.15 K	0.0307
in 1,4-dioxane, 318.15 K	0.0363
in acetone, 273.15 K	0.00209
in acetone, 278.15 K	0.00273
in acetone, 283.15 K	0.00326
in acetone, 288.15 K	0.00392
in acetone, 293.15 K	0.00466
in acetone, 298.15 K	0.00546
in acetone, 303.15 K	0.00636
in acetone, 308.15 K	0.00736
in acetone, 313.15 K	0.00846
in acetone, 318.15 K	0.00963
in acetonitrile, 273.15 K	0.000628
in acetonitrile, 278.15 K	0.000846
in acetonitrile, 283.15 K	0.00105
in acetonitrile, 288.15 K	0.00126
in acetonitrile, 293.15 K	0.0015
in acetonitrile, 298.15 K	0.00176
in acetonitrile, 303.15 K	0.00204
in acetonitrile, 308.15 K	0.00242
in acetonitrile, 313.15 K	0.00291
in acetonitrile, 318.15 K	0.0034
in cyclohexane, 283.15 K	0.000138
in cyclohexane, 288.15 K	0.000189
in cyclohexane, 293.15 K	0.000246
in cyclohexane, 298.15 K	0.00031
in cyclohexane, 303.15 K	0.000391
in cyclohexane, 308.15 K	0.000477
in cyclohexane, 313.15 K	0.000573
in cyclohexane, 318.15 K	0.000694
in ethanol, 273.2 K	0.000306
in ethanol, 278.2 K	0.000475
in ethanol, 283.2 K	0.000677
in ethanol, 288.2 K	0.000892
in ethanol, 293.2 K	0.00113
in ethanol, 298.2 K	0.00136
in ethanol, 303.2 K	0.00163
in ethanol, 308.2 K	0.00197
in ethanol, 313.2 K	0.00235
in ethanol, 318.2 K	0.00277
in ethyl acetate, 273.15 K	0.00271
in ethyl acetate, 278.15 K	0.00331
in ethyl acetate, 283.15 K	0.00391
in ethyl acetate, 288.15 K	0.00461
in ethyl acetate, 293.15 K	0.00532
in ethyl acetate, 298.15 K	0.00614
in ethyl acetate, 303.15 K	0.0071
in ethyl acetate, 308.15 K	0.00824
in ethyl acetate, 313.15 K	0.00948
in ethyl acetate, 318.15 K	0.0109
in isobutanol, 273.15 K	0.000861
in isobutanol, 278.15 K	0.00118
in isobutanol, 283.15 K	0.00153
in isobutanol, 288.15 K	0.0019
in isobutanol, 293.15 K	0.00231
in isobutanol, 298.15 K	0.00279
in isobutanol, 303.15 K	0.00331
in isobutanol, 308.15 K	0.00396
in isobutanol, 313.15 K	0.00475
in isobutanol, 318.15 K	0.00554
in isopropanol, 273.2 K	0.000474
in isopropanol, 278.2 K	0.000676
in isopropanol, 283.2 K	0.00085
in isopropanol, 288.2 K	0.00105
in isopropanol, 293.2 K	0.00127
in isopropanol, 298.2 K	0.00153
in isopropanol, 303.2 K	0.00181
in isopropanol, 308.2 K	0.0022
in isopropanol, 313.2 K	0.00265
in isopropanol, 318.2 K	0.00313
in methanol, 273.2 K	0.000712
in methanol, 278.2 K	0.000934
in methanol, 283.2 K	0.00119
in methanol, 288.2 K	0.00144
in methanol, 293.2 K	0.00171
in methanol, 298.2 K	0.00203
in methanol, 303.2 K	0.00238
in methanol, 308.2 K	0.00277
in methanol, 313.2 K	0.00335
in methanol, 318.2 K	0.00398
in n-butanol, 273.15 K	0.00106
in n-butanol, 278.15 K	0.00149
in n-butanol, 283.15 K	0.00194
in n-butanol, 288.15 K	0.00244
in n-butanol, 293.15 K	0.00291
in n-butanol, 298.15 K	0.00346
in n-butanol, 303.15 K	0.00412
in n-butanol, 308.15 K	0.00487
in n-butanol, 313.15 K	0.00575
in n-butanol, 318.15 K	0.00673
in n-propanol, 273.2 K	0.000773
in n-propanol, 278.2 K	0.00105
in n-propanol, 283.2 K	0.0014
in n-propanol, 288.2 K	0.00178
in n-propanol, 293.2 K	0.00218
in n-propanol, 298.2 K	0.00261
in n-propanol, 303.2 K	0.0031
in n-propanol, 308.2 K	0.00364
in n-propanol, 313.2 K	0.00424
in n-propanol, 318.2 K	0.005
in toluene, 273.15 K	0.00423
in toluene, 278.15 K	0.00517
in toluene, 283.15 K	0.00623
in toluene, 288.15 K	0.00735
in toluene, 293.15 K	0.00862
in toluene, 298.15 K	0.01
in toluene, 303.15 K	0.0116
in toluene, 308.15 K	0.0136
in toluene, 313.15 K	0.0155
in toluene, 318.15 K	0.0178
